In patent US20240025907A1, “QUINAZOLINE PAN-KRas INHIBITORS” (Mirati Therapeutics, Inc., priority 2022, published 2024):
Like-named read-outs stand apart in the source and are kept apart here.

Key:
KRas^G12D = molecular target: T1, KRas^G12D (Homo sapiens, UniProt P01116, G12D); test: KRas TR-FRET tracer displacement binding assay, G12D; details: 60-minute incubation
T1 construct: Biotinylated KRas (corresponding to amino acids 1-169, produced at Accelegan Inc.); biotin (biotinylated); purchased Accelegan Inc
Method: (§1) KRas^WT, KRas^G12A, KRas^G12C, KRas^G12D, KRas^G12R, KRas^G12S, KRas^G12V, KRas^G13D, or KRas^Q61H was used in the assay.
(§2) The ability of a compound to bind to KRas was measured using a TR-FRET displacement assay. Biotinylated KRas (corresponding to amino acids 1-169, produced at Accelegan Inc.) was incubated with custom made Cy5 labelled tracer, terbium streptavidin (Cisbio Inc.) and compound (1% DMSO final) in buffer (50 mM HEPES, pH 7.5, 5 mM MgCl2, 0.005% Tween-20 and 1 mM DTT). After a 60-minute incubation at room temperature, the reaction was measured using a BMG LABTECH CLARIO star Plus via TR-FRET.

KRas^G12V = molecular target: T2, KRas^G12V (Homo sapiens, UniProt P01116, G12V); test: KRas TR-FRET tracer displacement binding assay, G12V; details: 60-minute incubation
T2 construct: Biotinylated KRas (corresponding to amino acids 1-169, produced at Accelegan Inc.); biotin (biotinylated); purchased Accelegan Inc
Method: as §1, §2

KRas^WT = molecular target: T3, KRas^WT (Homo sapiens, UniProt P01116); test: KRas TR-FRET tracer displacement binding assay, WT; details: 60-minute incubation
T3 construct: Biotinylated KRas (corresponding to amino acids 1-169, produced at Accelegan Inc.); biotin (biotinylated); purchased Accelegan Inc
Method: as §1, §2

KRas^G12C = molecular target: T4, KRas^G12C (Homo sapiens, UniProt P01116, G12C); test: KRas TR-FRET tracer displacement binding assay, G12C; details: 60-minute incubation
T4 construct: Biotinylated KRas (corresponding to amino acids 1-169, produced at Accelegan Inc.); biotin (biotinylated); purchased Accelegan Inc
Method: as §1, §2

KRas^G12S = molecular target: T5, KRas^G12S (Homo sapiens, UniProt P01116, G12S); test: KRas TR-FRET tracer displacement binding assay, G12S; details: 60-minute incubation
T5 construct: Biotinylated KRas (corresponding to amino acids 1-169, produced at Accelegan Inc.); biotin (biotinylated); purchased Accelegan Inc
Method: as §1, §2

[1] = test system: KRas-mediated Phosphorylation of ERK in AsPC-1 cells; test: Cisbio HTRF pERK assay, AsPC-1 cells; type: cell-based; details: 3 hrs compound, read-out: Inhibition (HTRF IC50 nM) of KRas-mediated Phosphorylation of ERK, AsPC-1
[2] = test system: KRas-mediated Phosphorylation of ERK in H727 cells; test: Cisbio HTRF pERK assay, H727 cells; type: cell-based; details: 3 hrs compound, read-out: Inhibition (HTRF IC50 nM) of KRas-mediated Phosphorylation of ERK, H727
[3] = test system: KRas-mediated Phosphorylation of ERK in A549 cells; test: Cisbio HTRF pERK assay, A549 cells; type: cell-based; details: A549 cells, 3 hrs compound, read-out: Inhibition (HTRF IC50 nM) of KRas-mediated Phosphorylation of ERK, A549
[4] = test system: KRas-mediated Phosphorylation of ERK in H358 cells; test: Cisbio HTRF pERK assay, H358 cells; type: cell-based; details: H358 cells, 3 hrs compound, read-out: Inhibition (HTRF IC50 nM) of KRas-mediated Phosphorylation of ERK, H358
[5] = test system: KRas-mediated Phosphorylation of ERK in HCT116 cells; test: Cisbio HTRF pERK assay, HCT116 cells; type: cell-based; details: Homo sapiens, HCT-116, 3 h, HCT116 cells, 3 hrs compound; read-out: Inhibition (HTRF IC50 nM) of KRas-mediated Phosphorylation of ERK, HCT116
[6] = test system: KRas-mediated Phosphorylation of ERK in H460 cells; test: Cisbio HTRF pERK assay, H460 cells; type: cell-based; details: Homo sapiens, NCI-H460, 3 h, H460 cells, 3 hrs compound; read-out: Inhibition (HTRF IC50 nM) of KRas-mediated Phosphorylation of ERK, H460
[7] = test system: KRas-mediated Phosphorylation of ERK in PSN1 cells; test: Cisbio HTRF pERK assay, PSN1 cells; type: cell-based; details: Homo sapiens, PSN1, 3 h, 3 hour compound, read-out: Inhibition (HTRF IC50 nM) of KRas-mediated Phosphorylation of ERK, PSN1
Method: Inhibition of KRas Phosphorylation of ERK (HTRF) by Exemplary Compounds of Formula (I) • Cisbio HTRF Advanced pERK Assay Catalog #64AERPEH • Cell: MKN1, PSN1 • Procedure: • Day 1: Seed 6,000 cells/well −25 μl/well in 384-well white solid bottom plate; RPM1_10% FBS.

T1 sequence (P01116 1-169 isoform P01116-2 G12D): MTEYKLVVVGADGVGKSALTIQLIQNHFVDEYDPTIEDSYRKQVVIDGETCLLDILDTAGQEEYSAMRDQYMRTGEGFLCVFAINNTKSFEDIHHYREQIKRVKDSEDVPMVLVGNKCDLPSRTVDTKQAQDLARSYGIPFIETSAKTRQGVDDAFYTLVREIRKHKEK
T2 sequence (P01116 1-169 isoform P01116-2 G12V): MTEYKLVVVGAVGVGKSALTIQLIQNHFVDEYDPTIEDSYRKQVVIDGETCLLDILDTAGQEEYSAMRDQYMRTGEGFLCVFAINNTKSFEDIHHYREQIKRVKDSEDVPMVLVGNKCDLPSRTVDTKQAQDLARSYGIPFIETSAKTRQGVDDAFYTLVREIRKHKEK
T4 sequence (P01116 1-169 isoform P01116-2 G12C): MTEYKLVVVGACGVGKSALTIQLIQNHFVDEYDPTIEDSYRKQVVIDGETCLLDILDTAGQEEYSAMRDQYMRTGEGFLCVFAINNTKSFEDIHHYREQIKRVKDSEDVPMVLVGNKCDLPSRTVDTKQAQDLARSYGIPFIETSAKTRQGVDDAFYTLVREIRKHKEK
T3 sequence (P01116 1-169 isoform P01116-2): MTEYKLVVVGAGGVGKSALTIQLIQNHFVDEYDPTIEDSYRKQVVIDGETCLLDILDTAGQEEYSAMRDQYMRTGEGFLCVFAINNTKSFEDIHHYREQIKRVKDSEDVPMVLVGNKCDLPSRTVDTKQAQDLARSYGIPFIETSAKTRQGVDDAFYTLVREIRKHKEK
T5 sequence (P01116 1-169 isoform P01116-2 G12S): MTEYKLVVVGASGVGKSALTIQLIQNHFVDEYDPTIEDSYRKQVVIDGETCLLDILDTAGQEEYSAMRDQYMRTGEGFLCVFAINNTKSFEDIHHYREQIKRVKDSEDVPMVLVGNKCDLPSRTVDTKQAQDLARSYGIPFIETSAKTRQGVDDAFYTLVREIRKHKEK

Compound	IC50 (KRas^G12D) [nM]	IC50 (KRas^G12V) [nM]	IC50 (KRas^WT) [nM]	IC50 (KRas^G12C) [nM]	IC50 (KRas^G12S) [nM]	IC50 [1] [nM]	IC50 [2] [nM]	IC50 [3] [nM]	IC50 [4] [nM]	IC50 ([1]; Homo sapiens, ASPC1, 3 h) [nM]	IC50 ([2]; Homo sapiens, NCI-H727, 3 h) [nM]	IC50 [5] [nM]	IC50 ([3]; Homo sapiens, A549, 3 h) [nM]	IC50 [6] [nM]	IC50 ([4]; Homo sapiens, NCI-H358, 3 h) [nM]	IC50 [7] [nM]
N#Cc1c(N)sc2c(F)ccc(-c3c(Cl)cc4c(N5CCCOC6CC65)nc(OC[C@@]56CCCN5C[C@H](F)C6)nc4c3F)c12 (single isomer, unassigned) [Example 212]	14	11	6	6	6	230	357	76	22	–	–	–	–	–	–	–
N#Cc1c(N)sc2c(F)ccc(-c3c(Cl)cc4c(N5CCCOC6CC65)nc(OC[C@@]56CCCN5C[C@H](F)C6)nc4c3F)c12 (single isomer, unassigned) [Example 213]	9	4	11	8	5	761	767	398	160	–	–	–	–	–	–	–
CC(Oc1nc(N(C)C)c2cc(F)c(-c3ccc(F)c4sc(N)c(C#N)c34)c(F)c2n1)C12CCCN1CCC2 (single isomer, unassigned; isomer 1) [Example 177, 2-amino-4-(4-(dimethylamino)-6,8-difluoro-2-(1-(tetrahydro-1H-pyrrolizin-7a(5H)-yl)ethoxy)quinazolin-7-yl)-7-fluorobenzo[b]thiophene-3-carbonitrile (isomer 1)]	107	18	40	36	42	–	–	–	–	–	–	–	–	–	–	–
N#Cc1c(N)sc2c(F)ccc(-c3c(Cl)cc4c(N5C=C(CCO)CCCC5)nc(OC[C@@]56CCCN5C[C@H](F)C6)nc4c3F)c12 [Example 190, 2-amino-4-(6-chloro-8-fluoro-2-(((2R,7aS)-2-fluorotetrahydro-1H-pyrrolizin-7a(5H)-yl)methoxy)-4-(6-(2-hydroxyethyl)-2,3,4,5-tetrahydro-1H-azepin-1-yl)quinazolin-7-yl)-7-fluorobenzo[b]thiophene-3-carbonitrile]	–	–	–	–	–	–	–	–	–	627	870	596	525	347	330	5570
N#Cc1c(N)sc2c(F)ccc(-c3c(Cl)cc4c(N5CCCCC(=O)C5)nc(OC[C@@]56CCCN5C[C@H](F)C6)nc4c3F)c12 [Example 191, 2-amino-4-(6-chloro-8-fluoro-2-(((2R,7aS)-2-fluorotetrahydro-1H-pyrrolizin-7a(5H)-yl)methoxy)-4-(3-oxoazepan-1-yl)quinazolin-7-yl)-7-fluorobenzo[b]thiophene-3-carbonitrile]	–	–	–	–	–	–	–	–	–	8	12	11	11	10	2	798
N#Cc1c(N)sc2c(F)ccc(-c3c(Cl)cc4c(NCc5cn[nH]c5)nc(OC[C@@]56CCCN5C[C@H](F)C6)nc4c3F)c12 [Example 199, 4-(4-(((1H-pyrazol-4-yl)methyl)amino)-6-chloro-8-fluoro-2-(((2R,7aS)-2-fluorotetrahydro-1H-pyrrolizin-7a(5H)-yl)methoxy)quinazolin-7-yl)-2-amino-7-fluorobenzo[b]thiophene-3-carbonitrile]	–	–	–	–	–	–	–	–	–	4200	4090	889	1180	462	232	3860
CC1CN(C)CCCN1c1nc(N(C)C)c2cc(Cl)c(-c3ccc(F)c4sc(N)c(C#N)c34)c(F)c2n1 (centres unmarked) [Example 217, 2-amino-4-(6-chloro-2-(2,4-dimethyl-1,4-diazepan-1-yl)-4-(dimethylamino)-8-fluoroquinazolin-7-yl)-7-fluorobenzo[b]thiophene-3-carbonitrile]	959	75	251	184	275	–	–	–	–	–	–	–	–	–	–	–

Further lines, results first:

IC50 (KRas^G12D) [nM]	IC50 (KRas^G12V) [nM]	IC50 (KRas^WT) [nM]	IC50 (KRas^G12C) [nM]	IC50 (KRas^G12S) [nM]	IC50 [1] [nM]	IC50 [2] [nM]	IC50 [3] [nM]	IC50 [4] [nM]	IC50 ([1]; Homo sapiens, ASPC1, 3 h) [nM]	IC50 ([2]; Homo sapiens, NCI-H727, 3 h) [nM]	IC50 [5] [nM]	IC50 ([3]; Homo sapiens, A549, 3 h) [nM]	IC50 [6] [nM]	IC50 ([4]; Homo sapiens, NCI-H358, 3 h) [nM]	IC50 [7] [nM]	Compound
92	10	17	20	28	–	–	–	–	–	–	–	–	–	–	–	CC(Oc1nc(N(C)C)c2cc(F)c(-c3ccc(F)c4sc(N)c(C#N)c34)c(F)c2n1)C12CCCN1CCC2 (single isomer, unassigned; isomer 2) [Example 178, 2-amino-4-(4-(dimethylamino)-6,8-difluoro-2-(1-(tetrahydro-1H-pyrrolizin-7a(5H)-yl)ethoxy)quinazolin-7-yl)-7-fluorobenzo[b]thiophene-3-carbonitrile (isomer 2)]
< 2	< 2	< 2	< 2	< 2	–	–	–	–	10	23	135	72	101	8	–	C=Cc1cc2c(N3CCCn4nc(C(=O)N(C)C)cc4C3)nc(OC[C@@]34CCCN3C[C@H](F)C4)nc2c(F)c1-c1ccc(F)c2sc(N)c(C#N)c12 [Example 176, 5-(7-(2-amino-3-cyano-7-fluorobenzo[b]thiophen-4-yl)-8-fluoro-2-(((2R,7aS)-2-fluorotetrahydro-1H-pyrrolizin-7a(5H)-yl)methoxy)-6-vinylquinazolin-4-yl)-N,N-dimethyl-5,6,7,8-tetrahydro-4H-pyrazolo[1,5-a][1,4]diazepine-2-carboxamide]
–	–	–	–	–	–	–	–	–	501	226	661	307	306	82	4790	CN(c1nc(OC[C@@]23CCCN2C[C@H](F)C3)nc2c(F)c(-c3ccc(F)c4sc(N)c(C#N)c34)c(Cl)cc12)C1CC1 [Example 203, 2-amino-4-(6-chloro-4-(cyclopropyl(methyl)amino)-8-fluoro-2-(((2R,7aS)-2-fluorotetrahydro-1H-pyrrolizin-7a(5H)-yl)methoxy)quinazolin-7-yl)-7-fluorobenzo[b]thiophene-3-carbonitrile]
–	–	–	–	–	–	–	–	–	1740	554	985	574	690	71	7120	N#Cc1c(N)sc2c(F)ccc(-c3c(Cl)cc4c(NCCO)nc(OC[C@@]56CCCN5C[C@H](F)C6)nc4c3F)c12 [Example 205, 2-amino-4-(6-chloro-8-fluoro-2-(((2R,7aS)-2-fluorotetrahydro-1H-pyrrolizin-7a(5H)-yl)methoxy)-4-((2-hydroxyethyl)amino)quinazolin-7-yl)-7-fluorobenzo[b]thiophene-3-carbonitrile]
–	–	–	–	–	–	–	–	–	246	55	367	244	173	60	4890	N#Cc1c(N)sc2c(F)ccc(-c3c(Cl)cc4c(N5CCC5)nc(OC[C@@]56CCCN5C[C@H](F)C6)nc4c3F)c12 [Example 206, 2-amino-4-(4-(azetidin-1-yl)-6-chloro-8-fluoro-2-(((2R,7aS)-2-fluorotetrahydro-1H-pyrrolizin-7a(5H)-yl)methoxy)quinazolin-7-yl)-7-fluorobenzo[b]thiophene-3-carbonitrile]
